Measured values from patent publication US20260217708A1, “FUSED BENZAZEPINE DERIVATIVES FOR USE IN THE TREATMENT OF CANCER AND EPILEPSY” (UCB BIOPHARMA SRL, priority 2023, published 2026).

Experiments:
system Xc^− [1] = target: T1, system Xc^− (Homo sapiens, UniProt Q9UPY5); test: [^14C]L-Cystine uptake assay; format: cell-based; set-up: endogenous in cells; host or cells: H4 cells; conditions: H4 cells, sodium-free HEPES buffer, 0.5 μM L-[14C]Cystine and 4.5 μM L-Cystine, 1 hour at 37° C.; read-out: pIC50 [^14C] L-Cystine uptake assay (converted)
T1 sequence (Q9UPY5 1-501): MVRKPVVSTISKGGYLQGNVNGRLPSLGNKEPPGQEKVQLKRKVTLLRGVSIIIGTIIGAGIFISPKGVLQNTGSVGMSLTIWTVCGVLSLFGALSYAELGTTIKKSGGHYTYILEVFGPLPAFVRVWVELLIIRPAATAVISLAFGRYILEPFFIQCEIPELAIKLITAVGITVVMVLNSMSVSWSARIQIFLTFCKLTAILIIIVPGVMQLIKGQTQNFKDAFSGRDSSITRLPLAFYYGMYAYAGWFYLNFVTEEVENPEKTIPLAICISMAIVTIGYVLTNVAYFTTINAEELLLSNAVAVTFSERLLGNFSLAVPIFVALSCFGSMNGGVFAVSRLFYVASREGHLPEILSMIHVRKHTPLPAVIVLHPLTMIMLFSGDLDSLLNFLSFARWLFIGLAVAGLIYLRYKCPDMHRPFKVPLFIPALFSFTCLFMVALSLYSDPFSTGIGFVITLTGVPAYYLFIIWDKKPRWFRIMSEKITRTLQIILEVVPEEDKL
T1 sequence (P08195 1-529 partner): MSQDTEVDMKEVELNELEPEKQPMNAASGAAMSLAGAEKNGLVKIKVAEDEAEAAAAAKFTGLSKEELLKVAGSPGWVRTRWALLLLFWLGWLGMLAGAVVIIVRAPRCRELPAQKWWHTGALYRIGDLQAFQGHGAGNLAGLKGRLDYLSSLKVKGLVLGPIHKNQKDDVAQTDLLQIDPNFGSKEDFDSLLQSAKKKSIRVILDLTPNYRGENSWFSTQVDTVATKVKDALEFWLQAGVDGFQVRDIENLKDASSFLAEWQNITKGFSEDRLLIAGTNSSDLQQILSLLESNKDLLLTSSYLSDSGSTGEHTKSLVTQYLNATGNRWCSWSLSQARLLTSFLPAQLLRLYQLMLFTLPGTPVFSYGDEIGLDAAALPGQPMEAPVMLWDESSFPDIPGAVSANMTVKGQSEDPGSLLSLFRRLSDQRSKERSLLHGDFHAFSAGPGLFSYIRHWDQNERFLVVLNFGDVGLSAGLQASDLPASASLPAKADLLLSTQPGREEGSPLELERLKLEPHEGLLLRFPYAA
Method in brief: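 H4 cells at 5×10^4 cells/well in sodium-free HEPES buffer were preincubated 15 min with compounds (1% DMSO). Uptake of 0.5 μM [14C]L-cystine plus 4.5 μM unlabelled L-cystine ran 1 hour at 37° C on scintillating plates. IC50 was set between 1% DMSO and 50 μM Erastin controls and expressed as pIC50.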

system Xc^− [2] = target: T1, system Xc^−; test: Cystine-induced glutamate release assay; format: cell-based; set-up: endogenous in cells; host or cells: H4 cells; conditions: H4 cells, sodium-free HEPES buffer, 50 μM L-Cystine, 2 hours, Amplex Red glutamate readout; read-out: pIC50 Cystine-induced glutamate release assay (converted)
Method in brief: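 H4 cells in sodium-free HEPES buffer (pH 7.4), 2 days after plating; glutamate release induced with 50 μM L-cystine plus compound (1% DMSO), 2 h at 37 °C. Supernatant glutamate measured by Amplex Red fluorescence; IC50/pIC50 derived between 1% DMSO and 50 μM erastin controls.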

IC50 (system Xc^− [1]) [nM]	IC50 (system Xc^− [2]) [nM]	SMILES
100 to 501	100 to 501	CC(=O)OCc1cc2c(cn1)-c1ccccc1CC(=O)N2CC(=O)Nc1ccc(C(F)(F)F)cc1 [#59, [6-oxo-5-[2-oxo-2-[4-(trifluoromethyl)anilino]ethyl]-7H-pyrido[4,3-d][3]benzazepin-3-yl]methyl acetate]
39.8 to 100	39.8 to 100	Cc1cc2c(c(F)n1)-c1cccnc1C(C)C(=O)N2CC(=O)Nc1ccc2c(cnn2C)c1 (stereo not shown) [#129, 2-(3-fluoro-5,10-dimethyl-9-oxo-4,8,12-triazatricyclo[9.4.0.0^2,7]pentadeca-1(11),2(7),3,5,12,14-hexaen-8-yl)-N-(1-methylindazol-5-yl)acetamide]
39.8 to 100	39.8 to 100	CC1C(=O)N(CC(=O)Nc2ccc(Cl)c(F)c2)c2ccn(C)c(=O)c2-c2ccccc21 (stereo not shown) [#351, N-(4-chloro-3-fluoro-phenyl)-2-(2,7-dimethyl-1,6-dioxo-7H-pyrido[4,3-d][3]benzazepin-5-yl)acetamide]
< 15.8	15.8 to 39.8	Cc1cc2c(c(F)n1)-c1cccnc1[C@@H](C)C(=O)N2CC(=O)Nc1ccc(C(C)(F)F)cc1 [#149, N-[4-(1,1-difluoroethyl)phenyl]-2-[(10R)-3-fluoro-5,10-dimethyl-9-oxo-4,8,12-triazatricyclo[9.4.0.0^2,7]pentadeca-1(11),2(7),3,5,12,14-hexaen-8-yl]acetamide]
39.8 to 100	15.8 to 39.8	CC1C(=O)N(CC(=O)Nc2ccc(Cl)c(F)c2)c2cc(C(F)F)ccc2-c2cccnc21 (stereo not shown) [#341, N-(4-chloro-3-fluoro-phenyl)-2-[9-(difluoromethyl)-5-methyl-6-oxo-5H-pyrido[2,3-d][1]benzazepin-7-yl]acetamide]
39.8 to 100	39.8 to 100	Cc1nccc2c1-c1ccccc1CC(=O)N2CC(=O)Nc1ccc(C(F)(F)F)cc1 [#28, 2-(1-methyl-6-oxo-7H-pyrido[4,3-d] [3]benzazepin-5-yl)-N-[4-(trifluoro-methyl)phenyl] acetamide]
< 15.8	15.8 to 39.8	Cc1cc2c(c(C)n1)-c1ccc(F)cc1CC(=O)N2CC(=O)Nc1ccc(C(F)(F)F)cc1 [#65, 2-(9-fluoro-1,3-dimeth-yl-6-oxo-7H-pyrido[4,3-d][3]benzazepin-5-yl)-N-[4-(trifluorometh-yl)phenyl]acetamide]
< 15.8	< 15.8	Cc1cc2c(c(Cl)n1)-c1cncnc1C(C)C(=O)N2CC(=O)Nc1ccc(Cl)c(F)c1 (single isomer, unassigned) [#220, Enantiomer (8S) or (8R) of 2-[15-chloro-8,13-dimethyl-9-oxo-4,6,10,14-tetrazatricyclo[9.4.0.0^2,7]pentadeca-1(15),2,4,6,11,13-hexaen-10-yl]-N-(4-chloro-3-fluoro-phenyl)acetamide]
39.8 to 100	39.8 to 100	CC1C(=O)N(CC(=O)Nc2ccc(Cl)c(F)c2)c2cc(N3CC4(C3)CC4(F)F)nc(F)c2-c2cccnc21 (single isomer, unassigned) [#270, N-(4-chloro-3-fluoro-phenyl)-2-[5-(2,2-difluoro-5-azaspiro[2.3]hexan-5-yl)-3-fluoro-10-methyl-9-oxo-4,8,12-triazatricyclo[9.4.0.0^2,7]pentadeca-1(15),2,4,6,11,13-hexaen-8-yl]acetamide]
100 to 501	39.8 to 100	Cc1cc2c(cn1)-c1cccnc1CC(=O)N2CC(=O)Nc1ccc(C(F)(F)F)cc1 [#36, 2-(5-methyl-9-oxo-4,8,12-triazatricyclo[9.4.0.0^2,7]pentadeca-1(11),2(7),3,5,12,14-hexaen-8-yl)-N-[4-(trifluoromethyl)phenyl]acetamide]
15.8 to 39.8	15.8 to 39.8	Cc1cc2c(n(C)c1=O)-c1ccccc1N(C)C(=O)N2CC(=O)Nc1ccc(Cl)c(F)c1 [#166, N-(4-chloro-3-fluoro-phenyl)-2-(1,3,7-trimethyl-2,6-dioxo-pyrido[3,2-d][1,3]benzodiazepin-5-yl)acetamide]

Further lines, the compound ahead of its results:

SMILES	IC50 (system Xc^− [1]) [nM]	IC50 (system Xc^− [2]) [nM]
COCCOc1nc(C)cc2c1-c1cccnc1C(C)C(=O)N2CC(=O)Nc1ccc(C(F)(F)F)cc1 (single isomer, unassigned) [#162, 2-[3-(2-methoxyethoxy)-5,10-dimethyl-9-oxo-4,8,12-triazatricyclo[9.4.0.0^2,7]pentadeca-1(11),2(7),3,5,12,14-hexaen-8-yl]-N-[4-(trifluoromethyl)phenyl]acetamide]	15.8 to 39.8	15.8 to 39.8
Cc1cc2c(c(Cl)n1)-c1cc(F)cnc1C(C)C(=O)N2CC(=O)Nc1ccc(C(F)(F)F)cn1 (single isomer, unassigned) [#424, 2-(3-chloro-14-fluoro-5,10-dimethyl-9-oxo-4,8,12-triazatricyclo[9.4.0.0^2,7]pentadeca-1(11),2,4,6,12,14-hexaen-8-yl)-N-[5-(trifluoromethyl)-2-pyridyl]acetamide]	15.8 to 39.8	15.8 to 39.8
CC1C(=O)N(CC(=O)Nc2ccc(C(F)F)cc2)c2cc(C#N)ccc2-c2cccnc21 (single isomer, unassigned) [#312, 2-[9-cyano-5-methyl-6-oxo-5H-pyrido[2,3-d][1]benzazepin-7-yl]-N-[4-(difluoromethyl)phenyl]acetamide]	39.8 to 100	< 15.8
COc1nc(C)cc2c1-c1cccnc1CC(=O)N2CC(=O)Nc1ccc(C#N)cc1 [#77, N-(4-cyanophenyl)-2-(3-methoxy-5-methyl-9-oxo-4,8,12-triazatricyclo [9.4.0.0^2,7]pentadeca-1(11),2,4,6,12,14-hexaen-8-yl)acetamide]	100 to 501	39.8 to 100
Cc1cc2c(c(Cl)n1)-c1ccccc1CC(=O)N2CC(=O)Nc1ccc(C(F)(F)F)cc1 [#49, 2-(1-chloro-3-methyl-6-oxo-7H-pyrido[4,3-d][3]benzazepin-5-yl)-N-[4-(trifluoromethyl)phenyl]acetamide]	< 15.8	15.8 to 39.8
Cc1cc2c(c(Cl)n1)-c1cccnc1C(C)C(=O)N2CC(=O)Nc1ccc(C(F)(F)F)nc1 (single isomer, unassigned) [#228, Enantiomer (10S) or (10R) of 2-[3-chloro-5,10-dimethyl-9-oxo-4,8,12-triazatricyclo[9.4.0.0^2,7]pentadeca-1(15),2,4,6,11,13-hexaen-8-yl]-N-[6-(trifluoromethyl)-3-pyridyl]acetamide]	< 15.8	< 15.8
COc1nc(C)cc2c1-c1cnnn1CC(=O)N2CC(=O)Nc1ccc(C(F)(F)F)cc1 [#74, 2-(14-methoxy-12-methyl-8-oxo-4,5,6,9,13-pentazatricyclo[8.4.0.0^2,6]tetradeca-1(1),2,4,11,13-pentaen-9-yl)-N-[4-(trifluoromethyl)phenyl]acetamide]	100 to 501	100 to 501
COc1nc(C)cc2c1-c1cccnc1CC(=O)N2CC(=O)Nc1ccc(C2CC2)cc1 [#80, N-(4-cyclopropylphen-yl)-2-(3-methoxy-5-methyl-9-oxo-4,8,12-triazatricyclo[9.4.0.0^2.7]pentadeca-1(11),2(7),3,5,12,14-hexaen-8-yl)-acetamide]	15.8 to 39.8	15.8 to 39.8
Cc1cc2c(c(Cl)n1)-c1cc(C)nn1CC(=O)N2CC(=O)Nc1ccc(C(F)(F)F)cc1 [#105, 2-(14-chloro-4,12-dimethyl-8-oxo-5,6,9,13-tetrazatricyclo[8.4.0.0^2,6]tetradeca-1(14),2,4,10,12-pentaen-9-yl)-N-[4-(trifluoromethyl)phenyl]acetamide]	39.8 to 100	39.8 to 100
